Measurements reported in patent US20250313564A1, “ACIDIC SALT OR CRYSTAL FORM OF NITROGEN-CONTAINING FUSED RING DERIVATIVE INHIBITOR, AND PREPARATION METHOD THEREFOR AND USE THEREOF” (SHANGHAI HANSOH BIOMEDICAL CO., LTD., priority 2022, published 2025).

Tests used:
[1] = Stability of sample of crystal form A (illumination, high temperature, high humidity); format: physicochemical
Description: The free base crystal form A of compound 3 of the present invention was taken to prepare a sample, the sample was placed under the conditions of illumination 5000 lx, high temperature 60° C., high humidity 92.5% RH, and high temperature and high humidity 50° C. 75% RH, the 5-day stability and 10-day stability were investigated, a HPLC external standard method was used to determine the content, and a chromatographic peak area normalization method was used to calculate the change in related substances.

[2] = Hygroscopicity of sample of crystal form A; format: physicochemical
Description: The free base crystal form A of compound 3 was placed in saturated water vapor at different relative humidities to allow the compound to reach a dynamic equilibrium with the water vapor, and the percentage of weight gain after moisture absorption of the compound after equilibrium was calculated.

[3] = test system: luteinizing hormone (LH) in plasma of bilaterally ovariectomized (OVX) rats; test: Effect on luteinizing hormone (LH) content in plasma of bilaterally ovariectomized (OVX) rats; format: in vivo; conditions: oral 30 mg/kg, plasma LH 0-8 h
Source text: The purpose of this test example is to measure the effect of compounds on luteinizing hormone (LH) in plasma of bilaterally ovariectomized (OVX) rats.
• CMCNa (30036365, Sinopharm Chemical Reagent Co., Ltd.); • Tween 80 (30189828, Sinopharm Chemical Reagent Co., Ltd.); • Rat LH ELISA Kit (S-type) purchased from Shibayagi Japan, with catalog number of AKRLH-010S, comprising Assay buffer C, Sample dilution buffer G, Washing buffer, biotinylated anti-LHα antibody, HRP-conjugated streptavidin and Chromogen (TMB).
Bilaterally ovariectomized SD rats, aged 10 weeks, female, purchased from Beijing Vital River Laboratory Animal Technology Co., Ltd. The animals were kept in SPF-grade animal room, with 5 SD rats/cage. […]
Sample detection: All reagents, samples and ELISA plates were transferred to room temperature 20° C.-25° C. and equilibrated for at least 30 min, and dissolution, vortex and centrifugation were performed for later use. […] The OD value of each well was read using the microplate reader at a wavelength of 450 nm.
Graphpad was used to draw a standard curve, and sample concentrations were calculated. If the dilution was performed during the sample detection, the calculated sample concentration needed to be multiplied by the corresponding dilution ratio in the final calculation, which was the actual concentration of the sample.

[4] = high humidity 92.5% RH, 10 days
[5] = high temperature 60° C., 5 days
[6] = high temperature 60° C., 10 days
[7] = high temperature and high humidity 50° C. 75% RH, 5 days
[8] = high temperature and high humidity 50° C. 75% RH, 10 days

Compound	% Increase in total impurity ([1]; high humidity 92.5% RH, 5 days) [%]	% Maximum increase in single impurity ([1]; high humidity 92.5% RH, 5 days) [%]	% Increase in total impurity [1, 4] [%]	% Maximum increase in single impurity [1, 4] [%]	% Increase in total impurity [1, 5] [%]	% Maximum increase in single impurity [1, 5] [%]	% Increase in total impurity [1, 6] [%]	% Maximum increase in single impurity [1, 6] [%]	% Increase in total impurity [1, 7] [%]	% Maximum increase in single impurity [1, 7] [%]	% Increase in total impurity [1, 8] [%]	% Maximum increase in single impurity [1, 8] [%]	% Increase in total impurity ([1]; illumination 5000 lx, 5 days) [%]	% Maximum increase in single impurity ([1]; illumination 5000 lx, 5 days) [%]	% Increase in total impurity ([1]; illumination 5000 lx, 10 days) [%]	% Maximum increase in single impurity ([1]; illumination 5000 lx, 10 days) [%]	crystal form change (XRPD) after moisture absorption and desorption ([2]; 2 cycles, 0-95% relative humidity)	hygroscopicity (in words) ([2]; RH 80%)	weight gain after moisture absorption ([2]; RH 80%)	ΣAUC (ΔLH/LH · h, Mean ± SD) [3]
[2H]c1cc(C(=O)N2CCn3c(-c4nc(Cl)ns4)nnc3[C@H]2C)ccc1F [free base crystal form A, (R)-(3-(3-chloro-1,2,4-thiadiazol-5-yl)-8-methyl-5,6-dihydro-[1,2,4]triazolo[4,3-a]pyrazin-7(8H)-yl)(4-fluorophenyl-3-d)methanone]	<0.02	0.06	<0.02	0.07	0.12	0.07	<0.02	0.07	<0.02	0.03	<0.02	<0.02	<0.02	0.03	<0.02	0.05	no crystal form transformation	weak hygroscopicity	about 0.2720%	
[2H]c1cc(C(=O)N2CCn3c(-c4nc(Cl)ns4)nnc3[C@H]2C)ccc1F [Compound 3, (R)-(3-(3-chloro-1,2,4-thiadiazol-5-yl)-8-methyl-5,6-dihydro-[1,2,4]triazolo[4,3-a]pyrazin-7(8H)-yl)(4-fluorophenyl-3-d)methanone]																				−5.44 ± 3.02 ΔLH/LH · h
